Active and inactive are the calls of the source. How the calls were made is not given here.

This series in a line: Cytotoxicity activity against human HepG2 cells assessed by CellTiter-Glo luminescent cell viability assay. It counts as toxicity, cell-based. Further details: assay stage confirmatory assay, source tissue liver. Conditions: HepG2 cells, read-out: IC50 relative.
Consider `COc1ccc(CNC(=O)C2CCN(S(=O)(=O)c3ccc4c(c3)CC(C)N4C(C)=O)CC2)cc1` (centres undefined), for which the CC50 is 29.7 µM (inactive). As to `CCN1CCN(CCCNC(=O)c2cc3c(=O)n(C)c4ccccc4c3s2)CC1`, the CC50 is 4.1 µM (active). As for `COc1ccc(C)cc1S(=O)(=O)N1CCCC(C(=O)N2CCN(c3ccccc3F)CC2)C1` (centres undefined), the figure is 9.9 µM (inactive); as for `Cc1ccc(S(=O)(=O)c2cn(C)c3cc(N4CCN(C)CC4)c(F)cc3c2=O)cc1`, 15.1 µM (inactive). Next, `Cc1c(Cl)sn(-c2ccc(Cl)cc2)c1=O`: 4.4 µM (active); `O=C(Nc1ccc(Cl)cc1)N1CCCN(Cc2ccc(F)cc2)C1`: 6.7 µM (active); `COc1ccccc1C(=O)Nc1ccccn1`: 8.4 µM (inactive). On to `COc1ccc(-c2noc(N3CCC(C(=O)NCCCN4CCC(C)CC4)CC3)n2)cc1`, for which the CC50 is 19.2 µM (inactive). As for `CCn1c(=O)n(CC)c2cc(N3CCCC3)c(NC(=O)c3cccc(OC)c3)cc21`, the figure is 20.2 µM (inactive). With `Cc1cc(Br)cc(C)c1OCCCCN(C)C`, the CC50 is 9.8 µM (active).

Take `CCN(CC)CCNC(=O)C1CCN(c2nn3cc(-c4ccc(F)cc4)nc3s2)CC1`: the CC50 is 2 µM (active). With `Cc1n[nH]c(C)c1S(=O)(=O)N1CCCC(C(=O)Nc2ccc(Br)cc2)C1` (centres undefined), the CC50 was 26.3 µM (inactive). In the case of `COc1cc(-c2noc(-c3ccc4c(c3)OCO4)n2)cc(OC)c1OC`, the CC50 is 0.1 µM (active). With `COc1ccc(Nc2nc(NCCCO)c3ccccc3n2)cc1`, the CC50 was 8.2 µM (active). Turning to `CCCN1C(=O)COc2cc(-c3noc(C(=O)NC4CCN(Cc5ccccc5)CC4)n3)ccc21`, the CC50 was 15.2 µM (inactive). As for `Cc1ccc(C)c(N2CCN(CCCNC(=O)C3CCN(c4ccc5nnc(C)n5n4)CC3)CC2)c1`, the figure is 8.7 µM (active).

For the molecule `O=S1(=O)C[C@H](NC2CCCC2)[C@@H](S(=O)(=O)c2cccs2)C1`, the CC50 was 16.1 µM (active). Turning to `COc1ccc(-c2nc(NCCN3CCN(C)CC3)c3ccccc3n2)cc1`, the CC50 is 7.9 µM (active). As to `Cc1cc(C)cc(NC(=O)CC2CCCN(c3cn[nH]c(=O)c3)C2)c1` (centres undefined), the CC50 was 2.4 µM (active).

For the molecule `O=C(c1ccc(F)cc1)N1CCN(Cc2noc(-c3ccc(F)cc3)n2)CC1`, the CC50 was 5.8 µM (active). Turning to `CCOc1ccccc1C(=O)N1CCN(c2ccccc2OCC)CC1`, the CC50 is 15.1 µM (inactive). As for `CCS(=O)(=O)c1ncc(Cl)c(C(=O)Nc2ccccc2Cl)n1`, the CC50 was 2.5 µM (active).

`COc1ccc(C(=O)N2CCN(Cc3noc(-c4ccc(F)cc4)n3)CC2)cc1`: the CC50 is 4.5 µM (active). In the case of `c1ccc(CN2C[C@H]3CCNC[C@H]32)cc1`, the CC50 is 15.9 µM (inactive). Next, `CCN1C(=O)COc2ccc(NC(=O)c3cc(-c4ccc5c(c4)OCCO5)on3)cc21`: 50 µM (inactive); `CCOc1ccc(C(=O)N2CCN(Cc3noc(-c4ccc(F)cc4)n3)CC2)cc1`: 4.8 µM (active); `Cc1ccc(-c2noc(-c3cccc(OCC(=O)N4CCN(C)CC4)c3)n2)cc1`: 6.3 µM (active). For the molecule `CC(C)S(=O)(=O)N1CC(Oc2ccc(-c3noc(-c4ccncc4)n3)cc2)C1`, the CC50 was 19.7 µM (inactive). As to `O=S1(=O)C[C@H](NC2CCCCC2)[C@@H](S(=O)(=O)c2ccc(Cl)cc2)C1`, the CC50 was 17 µM (active).

As for `O=C(NCCN1CCCC1)C1CCN(c2nn3cc(-c4ccc(F)cc4)nc3s2)CC1`, the CC50 was 2.7 µM (active). Turning to `O=C(c1ccoc1)N1CCCN(Cc2ccc3c(c2)OCO3)c2ccccc21`, the CC50 was 20.4 µM (inactive). `Cc1cccc(NC(=O)C2CCN(S(=O)(=O)c3ccc4c(c3)CC(C)N4C(=O)C3CC3)CC2)n1` (centres undefined): the CC50 is 1.7 µM (active). For the molecule `CCCc1nnsc1C(=O)Nc1nc2ccccc2[nH]1`, the CC50 is 19 µM (inactive).

Consider `O=C(Nc1nccs1)C1=C(c2ccccc2)S(=O)(=O)CCO1`, for which the CC50 is 7.7 µM (active). With `CCN(CC)S(=O)(=O)c1ccc(C(=O)Nc2cc(C)nn2-c2nc(C)cc(=O)[nH]2)cc1`, the CC50 is 6.5 µM (inactive). As for `NCC1CN(CC2CC2)CC12CCCCC2` (centres undefined), the CC50 is 13.1 µM (inactive). As for `Cc1ccc(-c2cn3nc(N4CCC(C(=O)NCCCN5CCOCC5)CC4)sc3n2)cc1`, the figure is 5.1 µM (active); as for `CCN(CC)c1cc(C)nc(Nc2ccc(NC(=O)C3CCCO3)cc2)n1` (centres undefined), 11.3 µM (active); as for `CC(=O)N1c2ccc(S(=O)(=O)N3CCC(C(=O)NCc4cccs4)CC3)cc2CC1C` (centres undefined), 33.9 µM (inactive). Regarding `Cc1ccc(-c2cnn3c(N4CCN(CCO)CC4)cc(C)nc23)cc1`, the CC50 is 8.9 µM (active). For the molecule `CCC(C)NC(=O)COc1ccc(-c2nc(C(C)C)no2)cc1` (centres undefined), the CC50 was 4.2 µM (active).

For `COc1cc2c(cc1C(=O)Nc1ccccc1F)OCCCO2`, the CC50 was 13.8 µM (inactive). Turning to `O=c1cc(CSc2ccccc2)nc2sc(-c3ccco3)nn12`, the CC50 was 3.2 µM (active).

With `Cc1cc2c(cc1S(=O)(=O)Nc1cccc(F)c1)OCC(=O)N2`, the CC50 was 28.3 µM (inactive).

Take `CCN(CC)CCCNC(=O)C1CCCN(c2ncc(-c3ccc(F)cc3)cn2)C1` (centres undefined): the CC50 is 10.9 µM (active).

Regarding `CCCN1C(=O)COc2ccc(-c3csc(NC(=O)CC(C)C)n3)cc21`, the CC50 is 18 µM (inactive). As for `O=C(NCCN1CCCC1)C1CCN(c2ncccc2-c2nc(-c3ccccc3)no2)CC1`, the CC50 is 7.9 µM (active). For the molecule `CC(C)c1ccccc1OCC(=O)Nc1cccnc1`, the CC50 is 4 µM (active).

For `CCOc1ccc(S(=O)(=O)N2CC(C)CC(C)C2)cc1C` (centres undefined), the CC50 was 17 µM (inactive). Take `CCCN1CCN(CCCNC(=O)C2CCN(c3nc(-c4ccc(OC)cc4)no3)CC2)CC1`: the CC50 was 13 µM (active). With `CCCN(CCC)CCNC(=O)Cn1cnc2onc(-c3ccc(Cl)cc3)c2c1=O`, the CC50 was 5.9 µM (active).

Turning to `O=C(CCC1CCCN(c2cc(NC3CC3)ncn2)C1)N1CCN(c2ccc(F)cc2)CC1` (centres undefined), the CC50 was 9.1 µM (active). Take `CN(C)CCNc1oc(-c2ccc(S(=O)(=O)N3CCCCCC3)cc2)nc1C#N`: the CC50 is 18 µM (inactive). For the molecule `COc1ccc2c(c1)cc(C(=O)N[C@@H](C)C(=O)N1CCN(Cc3ccccc3)CC1)n2C`, the CC50 was 13.1 µM (inactive). As to `O=S1(=O)C[C@H](NCCc2c[nH]c3ccccc23)[C@@H](S(=O)(=O)c2cccs2)C1`, the CC50 was 11.6 µM (inactive). Next, `O=C(NCCCN1CCOCC1)C1CCN(c2nn3cc(-c4ccc(F)cc4)nc3s2)CC1`: 5.8 µM (active). Take `c1ccc(-c2cnn3c(-c4ccco4)ccnc23)cc1`: the CC50 was 0.5 µM (active). Next, `CCCCN[C@H]1CS(=O)(=O)C[C@@H]1S(=O)(=O)c1ccc(Cl)cc1`: 9.3 µM (active). As for `COc1cccc(NC(=O)Nc2nc3ccc(S(C)(=O)=O)cc3s2)c1`, the CC50 was 18.1 µM (inactive). Next, `CC(C)CN1CCN(Cc2nc(Cn3ccn4nc(-c5ccccc5)cc4c3=O)no2)CC1`: 13.6 µM (active). For `CCS(=O)(=O)c1ncc(Cl)c(C(=O)Nc2ccc(OC)cc2)n1`, the CC50 was 2.6 µM (active). In the case of `O=C(CN1C(=O)COc2ccc(S(=O)(=O)N3CCCC3)cc21)N1CCN(Cc2ccccc2)CC1`, the CC50 is 50 µM (inactive). Take `CCN1CCN(c2ncc(C(=O)Nc3ccc(Br)cc3)c(C)n2)CC1`: the CC50 was 13.8 µM (inactive). Consider `O=C(CCn1sc2ccccc2c1=O)NCCc1c[nH]c2ccccc12`, for which the CC50 was 5 µM (active). Next, `CC1CCN(S(=O)(=O)c2ccc(-c3nc(C#N)c(NCCCN(C)C)o3)cc2)CC1`: 5.8 µM (active); `O=S1(=O)C[C@H](NC2CCCC2)[C@@H](S(=O)(=O)c2ccc(Cl)cc2)C1`: 12.1 µM (active).

With `O=C(CN1C(=O)COc2ccc(S(=O)(=O)N3CCCCCC3)cc21)NCc1ccccc1`, the CC50 is 50 µM (inactive). Take `CCN(CC)S(=O)(=O)c1cccc(C(=O)Nc2cccc(F)c2)c1`: the CC50 is 10.4 µM (active). On to `Cc1cccc(-c2noc(-c3ccc(N4CCN(C)CC4)nc3)n2)c1`, for which the CC50 is 5 µM (active).

For the molecule `CCN(CC)CCCNC(=O)C1CCN(c2nn3cc(-c4ccc(OC)cc4)nc3s2)CC1`, the CC50 was 3 µM (active).

Consider `O=C(C1CCCC1)N1CC(Oc2ccc(-c3noc(C4CCOCC4)n3)cc2)C1`, for which the CC50 is 3.2 µM (active). Regarding `CN(CC(=O)NCCN1CCC(Cc2ccccc2)CC1)S(=O)(=O)c1cccc2nsnc12`, the CC50 was 9.1 µM (active). As for `O=C(NCCN1CCOCC1)C1CCN(c2nn3cc(-c4ccc(F)cc4)nc3s2)CC1`, the figure is 10.5 µM (active). As for `CCCCOc1ccc(-c2cc3c4nnc(CCC(=O)N5CCN(CC)CC5)n4ccn3n2)cc1`, the figure is 4.2 µM (active). Consider `CC1(C)Cc2c(sc(NC(=O)NCc3cccnc3)c2C(N)=O)CO1`, for which the CC50 was 12.4 µM (inactive). On to `COc1ccc(NC(=O)C2=C(c3ccccc3)S(=O)(=O)CCO2)c(OC)c1`, for which the CC50 was 9.7 µM (active). Take `COCCCN[C@H]1CS(=O)(=O)C[C@@H]1S(=O)(=O)c1ccc(Cl)cc1`: the CC50 was 16.7 µM (active). As to `CN(C)CCNC(=O)c1ccc2c(c1)n(Cc1cccc(F)c1)c(=O)c1ccnn12`, the CC50 was 12.7 µM (active).

Regarding `CN(C)CCOc1ccc2ccccc2c1Br`, the CC50 is 12 µM (active). As to `COc1ccc(-c2cc(C(=O)N3CCCCC3C)n[nH]2)cc1S(=O)(=O)N1CCCCC1` (centres undefined), the CC50 was 20.2 µM (inactive). As to `CC(C)OCCCN[C@H]1CS(=O)(=O)C[C@@H]1S(=O)(=O)c1ccc(Cl)cc1`, the CC50 is 16 µM (active). Consider `CCOc1ccccc1NC(=O)c1cnc2sc(N3CCOCC3)nn2c1=O`, for which the CC50 is 15.6 µM (inactive). Regarding `CCN1CCN(C(=O)C2CCN(c3nn4cc(-c5ccc(C)cc5)nc4s3)CC2)CC1`, the CC50 is 9.5 µM (active). As for `COc1ccc(-c2ccc(CNCCCN3CCOCC3)o2)cc1Cl`, the CC50 was 12.7 µM (inactive).

Values taken from ChEMBL document CHEMBL5303711, “ECBD screening data for assay EOS300108” (2023).
